Data on 12 molecules can be found in ChEMBL document CHEMBL5053528, “Discovery of 2-(Ortho-Substituted Benzyl)-Indole Derivatives as Potent and Orally Bioavailable RORγ Agonists with Antitumor Activity” (J Med Chem, 2021).

In general, half-life refers to the time needed for the level to fall by half in the phase considered. By AUC(0-t) is commonly meant exposure summed from dosing to a finite time, without extrapolation to infinity. Low readings indicate low exposure, high ones high exposure. One may read the bioavailability as the share of a dose that reaches the circulation, judged against a reference dose that is usually intravenous. A low value points to little systemic uptake. As a reminder, the Cmax is the maximum level reached in the sampled fluid or tissue. As a reminder, the EC50 is the concentration at which the effect is half-maximal. In general, clearance refers to a measure of how efficiently the substance is removed, as volume per time. As usually defined, the Emax is the size of the effect at its maximum, as opposed to the concentration needed.

Series [1] in a line: Microsomal stability in human liver microsomes assessed as half life. The class given is ADME, Microsome. (In general: Microsomes from liver hold many membrane-bound enzymes, among them those of drug oxidation.)
The nature of series [2]: Microsomal stability in rat liver microsomes assessed as half life. The class given is ADME, Microsome.
The nature of series [3]: AUC (0 to t) in mouse at 1 mg/kg, iv. The format is ADME, organism-based. More on the design: dose 1 mg/kg, route iv. The conditions noted are these: in vivo.
The nature of series [4]: Oral bioavailability in dog. The class given is ADME, organism-based, Canis lupus familiaris. The conditions noted are these: in vivo.
Series [5] can be described thus: Cmax in rat at 2 mg/kg, po. The format is ADME, organism-based. More on the design: dose 2 mg/kg, route po. The conditions noted are these: in vivo.
In series [6] the target is T1, Nuclear receptor ROR-gamma (Homo sapiens, UniProt P51449).
T1 sequence (P51449 whole entry): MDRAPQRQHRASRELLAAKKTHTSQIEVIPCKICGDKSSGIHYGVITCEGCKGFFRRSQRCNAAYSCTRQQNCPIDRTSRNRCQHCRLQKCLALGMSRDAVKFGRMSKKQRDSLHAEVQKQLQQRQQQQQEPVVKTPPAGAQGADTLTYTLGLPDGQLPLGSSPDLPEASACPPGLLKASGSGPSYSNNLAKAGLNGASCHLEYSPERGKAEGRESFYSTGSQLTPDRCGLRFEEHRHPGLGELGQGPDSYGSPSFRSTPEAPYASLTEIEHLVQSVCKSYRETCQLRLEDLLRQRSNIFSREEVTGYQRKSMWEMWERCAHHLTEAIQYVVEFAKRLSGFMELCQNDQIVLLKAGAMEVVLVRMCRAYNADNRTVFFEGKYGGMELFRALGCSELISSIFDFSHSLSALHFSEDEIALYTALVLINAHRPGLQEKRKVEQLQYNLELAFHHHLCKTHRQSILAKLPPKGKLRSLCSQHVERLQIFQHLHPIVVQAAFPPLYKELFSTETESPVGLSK
The series is described as follows: Agonist activity at N-terminal GST tagged human RORgamma LBD using fluorescein-D22 as coactivator incubated for 60 mins by Lanthascreen TR-FRET assay. For orientation: In TR-FRET formats the signal depends on donor and acceptor labels being close together.

A short description of series [7]: Half life in dog at 2 mg/kg, po. The class given is ADME, organism-based, Canis lupus familiaris. The following applies: in vivo.
A short description of series [8]: Volume of distribution in dog at 2 mg/kg, po. The format is ADME, organism-based, Canis lupus familiaris. The conditions noted are these: in vivo.
Series [9] can be described thus: Cmax in dog at 2 mg/kg, po. The format is ADME, organism-based, Canis lupus familiaris. More on the design: dose 2 mg/kg, route po. The conditions noted are these: in vivo.
The nature of series [10]: Volume of distribution in mouse at 1 mg/kg, iv. The format is ADME, organism-based. The conditions noted are these: in vivo, read-out: Vd.
A short description of series [11]: AUC (0 to t) in dog at 2 mg/kg, po. The class given is ADME, organism-based, Canis lupus familiaris. More on the design: dose 2 mg/kg, route po. The following applies: in vivo.
Series [12] concerns the target T1, Nuclear receptor ROR-gamma. The series is described as follows: Agonist activity at human RORgamma in cytostim stimulated human PBMC cells assessed as increase in differentiation of TH17 cells by measuring IL-17 production preincubated with cytostim for 72 hrs by ELISA. The format is cell-based. (An ELISA detects its analyte on a solid surface through an enzyme-linked reagent.)

Series [13] can be described thus: Half life in mouse at 2 mg/kg, po. The class given is ADME, organism-based. The following applies: in vivo.
Series [14] is described as follows: AUC (0 to t) in rat at 1 mg/kg, iv. The class given is ADME, organism-based. More on the design: dose 1 mg/kg, route iv. The following applies: in vivo.
The nature of series [15]: Volume of distribution in mouse at 2 mg/kg, po. The class given is ADME, organism-based. The following applies: in vivo.
A short description of series [16]: Volume of distribution in rat at 1 mg/kg, iv. The format is ADME, organism-based. The following applies: in vivo.
Series [17] in a line: Drug metabolism in dog plasma assessed as amide hydrolysis metabolite formation at 1 mg/kg, iv. The class given is ADME, organism-based, Canis lupus familiaris. The conditions noted are these: in vivo.
The nature of series [18]: Clearance in mouse at 1 mg/kg, iv. The format is ADME, organism-based. The following applies: in vivo.
Series [19] in a line: Volume of distribution in dog at 0.5 mg/kg, iv. The format is ADME, organism-based, Canis lupus familiaris. The following applies: in vivo.
The nature of series [20]: Half life in dog at 0.5 mg/kg, iv. The class given is ADME, organism-based, Canis lupus familiaris. The following applies: in vivo.
Series [21] in a line: Clearance in dog at 0.5 mg/kg, iv. The conditions noted are these: in vivo. The format is ADME, organism-based, Canis lupus familiaris.
Series [22] in a line: AUC (0 to t) in dog at 0.5 mg/kg, iv. More on the design: dose 0.5 mg/kg, route iv. The format is ADME, organism-based, Canis lupus familiaris. The following applies: in vivo.
Series [23] can be described thus: Drug metabolism in rat liver microsomes assessed as amide hydrolysis metabolite formation at 1 mg/kg, iv. The format is ADME, Microsome.
Series [24] in a line: Drug metabolism in dog liver microsomes assessed as amide hydrolysis metabolite formation at 1 mg/kg, iv. The format is ADME, Canis lupus familiaris, Microsome.
A short description of series [25]: Oral bioavailability in rat. The class given is ADME, organism-based. The following applies: in vivo.
A short description of series [26]: Cmax in mouse at 2 mg/kg, po. The class given is ADME, organism-based. The following applies: in vivo. More on the design: dose 2 mg/kg, route po.
Series [27] is described as follows: Half life in mouse at 1 mg/kg, iv. The format is ADME, organism-based. The conditions noted are these: in vivo.
Series [28] in a line: Oral bioavailability in mouse. The format is ADME, organism-based. The conditions noted are these: in vivo.
A short description of series [29]: AUC (0 to t) in rat at 2 mg/kg, po. The format is ADME, organism-based. More on the design: dose 2 mg/kg, route po. The following applies: in vivo.
The nature of series [30]: Drug metabolism in rat plasma assessed as amide hydrolysis metabolite formation at 1 mg/kg, iv. The following applies: in vivo. The format is ADME, organism-based.
A short description of series [31]: Clearance in rat at 1 mg/kg, iv. The class given is ADME, organism-based. The following applies: in vivo.
The nature of series [32]: Half life in rat at 1 mg/kg, iv. The class given is ADME, organism-based. The following applies: in vivo.
Series [33] in a line: AUC (0 to t) in mouse at 2 mg/kg, po. More on the design: dose 2 mg/kg, route po. The following applies: in vivo. The format is ADME, organism-based.
In series [34] the target is T1, Nuclear receptor ROR-gamma. The series is described as follows: Antagonist activity at N-terminal GST tagged human RORgamma LBD using fluorescein-D22 as coactivator incubated for 60 mins by Lanthascreen TR-FRET assay.
Series [35] concerns the target T1, Nuclear receptor ROR-gamma. The series can be described thus: Antagonist activity at human RORgamma in cytostim stimulated human PBMC cells assessed as decrease in differentiation of TH17 cells by measuring IL-17 production preincubated with cytostim for 72 hrs by ELISA. The format is cell-based.
For series [36], the target named is T2, Nuclear receptor ROR-gamma (Homo sapiens) (UniProt P51449).
T2 sequence (whole entry): T1 sequence (P51449 whole entry)
The series can be described thus: Inverse agonist activity at human RORgamma in cytostim stimulated human PBMC cells assessed as […] in IL-17 production by measuring maximal efficacy preincubated with cytostim for 72 hrs by ELISA relative to control. The format is cell-based. The conditions noted are these: filed as inverse agonist.

In series [37] the target is T2, Nuclear receptor ROR-gamma (Homo sapiens). The series can be described thus: Partial agonist activity at human RORgamma in cytostim stimulated human PBMC cells assessed as increase in IL-17 production by measuring maximal efficacy preincubated with cytostim for 72 hrs by ELISA relative to control. The class given is cell-based. The following applies: filed as partial agonist.

For series [38], the target named is T1, Nuclear receptor ROR-gamma. The series is described as follows: Partial agonist activity at human RORgamma in cytostim stimulated human PBMC cells assessed as […] in differentiation of TH17 cells by measuring IL-17 production preincubated with cytostim for 72 hrs by ELISA. The class given is cell-based.

Take `CCS(=O)(=O)c1ccc(CNC(=O)c2ccc3c(c2)cc(Cc2ccccc2C(F)(F)F)n3C(C)C)cc1`: the half-life in series [1] is 39 min; in series [2], 43 min.

Turning to `CCS(=O)(=O)c1ccc(CNC(=O)c2ccc3c(c2)cc(Cc2ccc(Cl)cc2C(F)(F)F)n3CCF)cc1`, the AUC(0-t) turned out to be 20000 ng·h/mL in series [3]; 103 ng·h/mL in series [11]; 277 ng·h/mL in series [14]; 309 ng·h/mL in series [22]; 3.73 ng·h/mL in series [29]; 18900 ng·h/mL in series [33]. The figures for the bioavailability in [4], in series [25] and in series [28] were 8.33%, 0.673% and 47.3%, respectively. In addition, the peak concentration (Cmax) in [5] was determined as 6.4 ng/mL; in series [9], 55.9 ng/mL; in series [26], 3270 ng/mL. The EC50 in [6] and in series [12] was 2 nM throughout. Also, the half-life was 128 min in series [7]; 223 min in series [13]; 173 min in [1]; 52.6 min in series [20]; 160 min in [27]; 126 min in [2]. For the same molecule, the half-life in series [32] is 51.6 min. Further, the Vd came to 73.7 L/kg in series [8]; 0.193 L/kg in series [10]; 0.569 L/kg in series [15]; 4.48 L/kg in [16]; 2.05 L/kg in series [19]. For the same molecule, the Drug metabolism entry in [17], in series [23], in series [24] and in [30] was “Metabolite_Detected” throughout. Further, the clearance is 0.834 mL/min/kg in series [18], 27.2 mL/min/kg in [21] and 60.2 mL/min/kg in [31].

In [34], `CCS(=O)(=O)c1ccc(CNC(=O)c2ccc3c(c2)cc(Cc2ccccc2C)n3C(C)C)cc1` had an EC50 of 44 nM.

Turning to `CCS(=O)(=O)c1ccc(CNC(=O)c2ccc3c(c2)cc(Cc2ccc(C(F)(F)F)cc2)n3C(C)C)cc1`, the concentration for a half-maximal effect (EC50) in [35] turned out to be 109 nM; in series [34] it was 150 nM. The Emax in series [36] came out at 109%.

For `CCS(=O)(=O)c1ccc(CNC(=O)c2ccc3c(c2)cc(Cc2ccccc2OC)n3C(C)C)cc1`, the half-life was found to be 13 min in [1] and 12 min in series [2].

For the molecule `CCS(=O)(=O)c1ccc(CNC(=O)c2ccc3c(c2)cc(Cc2ccccc2Br)n3C(C)C)cc1`, the half-life in series [1] is 15 min; in [2], 12 min.

Turning to `CCS(=O)(=O)c1ccc(CNC(=O)c2ccc3c(c2)cc(Cc2ccc(Cl)cc2C(F)(F)F)n3C(C)C)cc1`, the figures for the 50% effective concentration (EC50) in [6] and in series [12] were 11 nM and 8 nM, respectively. Besides, the half-life in [1] is 182 min; in series [2] it was 116 min.

For `CCS(=O)(=O)c1ccc(CNC(=O)c2ccc3c(c2)cc(Cc2cccc(C(F)(F)F)c2)n3C(C)C)cc1`, the EC50 is 19 nM in series [35] and 10 nM in [34]. The half-life in series [1] came to 20 min; in [2], 19 min. In addition, in series [36], the maximum response (Emax) stood at 93%.

On to `CCS(=O)(=O)c1ccc(CNC(=O)c2ccc3c(c2)cc(Cc2ccc(F)cc2C(F)(F)F)n3C(C)C)cc1`, for which the results for the half-maximal effective concentration (EC50) in [6] and in series [12] were 14 nM and 17 nM, respectively. In addition, the half-life is 72 min in series [1] and 64 min in series [2].

As to `CCS(=O)(=O)c1ccc(CNC(=O)c2ccc3c(c2)cc(Cc2ccc(Cl)cc2C(F)(F)F)n3C2CC2)cc1`, the half-life in series [1] stood at 139 min; in [2], 102 min.

`CCc1ccccc1Cc1cc2cc(C(=O)NCc3ccc(S(=O)(=O)CC)cc3)ccc2n1C(C)C`: in series [37], the Emax was found to be 79%. In addition, the half-maximal effective concentration (EC50) turned out to be 25 nM in series [6] and 2 nM in [38]. The half-life came to 13 min in series [1] and 12 min in [2].

Take `CCS(=O)(=O)c1ccc(CNC(=O)c2ccc3c(c2)cc(Cc2ccccc2)n3C(C)C)cc1`: in series [34], a half-maximal response (EC50) required 683 nM.
